From patent US12295938B2, “Composition for treating castration-resistant prostate cancer, comprising quassinoids” (SAMSUNG LIFE PUBLIC WELFARE FOUNDATION, priority 2019, dated 2025)
Like-named read-outs stand apart in the source and are kept apart here.

Key:
[1] = test system: AR-V7 transcriptional activity; test: MMTV-LUC luciferase reporter assay in 22RV1 cells, DHT− (screening and IC50); assay type: cell-based
Experimental: (§2) A library of antimalarial agents was screened using a luciferase reporter assay to measure changes in AR/AR-V7 transcriptional activity.
(§3) Screening was made primarily with 10 μM of each drug.

[2] = test system: AR transcriptional activity; test: MMTV-LUC luciferase reporter assay in 22RV1 cells, DHT+ (screening and IC50); assay type: cell-based; settings: Homo sapiens
Experimental: as §2, §3

[3] = test system: hormone-dependent AR transcriptional activity; test: MMTV-LUC reporter assay in LNCaP cells, hormone-dependent AR transcriptional activity; assay type: cell-based; settings: Homo sapiens, LNCaP, read-out: IC50 (nM) DHT+
22RV1 cells = test: MTT cell growth inhibition assay, 22RV1; assay type: cell-based; settings: 22RV1 cells
Experimental: In brief, 22RV1 cells were seeded at a density of 1×10^4 cells/well into 96-well plates and treated with each drug at 6 concentrations ranging from 5 nM to 200 nM for 72 hours. Afterwards, an MTT dye solution and a solubilization solution/stop mix were added according to an MTT assay method, followed by reading absorbance at 570 nm to analyze cell viability and IC50.

[4] = test system: RWPE-1, DU145, PC3, LNCaP, C4-2B, C4-2B-MDVR and 22RV1 cells; test: MTT cell growth assay on normal prostate and prostate cancer cell lines; assay type: cell-based; settings: 1 nM to 5 nM, 72 hours; versus normal prostate cells and AR-negative prostate cancer cells
Experimental: Bruceantin was analyzed for inhibitory activity against cell growth of normal prostate cells (RWPE-1), AR-negative prostate cancer cells (DU145, PC3), AR-positive hormone-dependent prostate cancer cells (LNCaP, C4-2B), AR- & AR-V7-positive castration-resistant prostate cancer cells (C4-2B-MDVR and 22RV1) by an MTT assay method.
In brief, the cell lines were each seeded at a density of 1×10^4 cells/well into 96-well plates and incubated with each of the drugs at three concentrations ranging from 1 nM to 5 nM for 72 hours. Afterwards, an MTT dye solution and a solubilization solution/stop mix were added according to an MTT assay method, followed by reading absorbance at 570 nm to analyze cell viability. The data are depicted in FIG. 6.

[5] = test system: 22RV1-xenografted mouse models; assay type: in vivo; set-up: Tumor (ave): unit not given here; settings: for Tumor (ave): 1 mg/kg every 3 days subcutaneous
Experimental: (§1) While being subcutaneously injected with bruceantin at a dose of 1 mg/kg/every 3 days, 22RV1-xenografted mouse models were monitored for inhibitory effects on tumor growth and body weights.

[6] = mouse, in vivo; for AST/ALT (ave): sc
Experimental: FIG. 8b is a graph showing changes in blood AST/ALT ratio with doses of bruceantin subcutaneously injected to mice according to an embodiment of the present disclosure.
as §1

[7] = test system: 22RV1 xenograft mouse models; assay type: in vivo; set-up: Tumor (ave): unit not given here; settings: 2 mg/kg every 2 days oral
Experimental: In mouse models xenografted with the castration-resistant prostate cancer (CRPC) cell line 22RV1, bruceantin was analyzed for inhibitory effect on tumor growth. To this end, bruceantin was orally administered at a dose of 2 mg/kg/every 2 days to 22RV1 xenograft mouse models during which inhibition effects on tumor growth and body weights were monitored. The results are depicted in FIGS. 9a and 9b and Tables 11 and 12.

[8] = Hematobiochemical toxicity assay in 22RV1 xenograft mice; assay type: in vivo, mouse; settings: for ALT (ave) / AST (ave) / AST/ALT (ave) / CK (ave) / Cr (ave) / LDH (ave): mouse, in vivo
Experimental: Briefly, in order to analyze toxicity of bruceantin in vivo, bloods from 22RV1 xenograft […] 3 days […] and oral administration at a dose of 2 mg/kg/every 2 days (p.o.), and the results are depicted in FIG. 10 and summarized in Table 13. • ALT: Alanine transaminase • AST: Aspartate transaminase • LDH: Lactate dehydrogenase • CR: Creatinine • CPK: Creatine phosphokinase

[9] = mouse, in vivo
Experimental: Anatomical and histological toxicity assays were performed on livers, kidneys and spleens from the mice subcutaneously injected with bruceantin. In order to analyze in vivo toxicity of bruceantin, liver, kidney, and spleen tissues from 22RV1 xenograft mouse models were analyzed after subcutaneous injection at a dose of 1 mg/kg/every 3 days, and the results are depicted in FIGS. 11a and 11b.
Anatomical and histological toxicity assays were performed on livers, kidneys and spleens from the mice to which bruceantin had been orally administered. In order to analyze in vivo toxicity of bruceantin, liver, kidney, and spleen tissues from 22RV1 xenograft mouse models were analyzed after oral administration at a dose of 2 mg/kg/every 2 days, and the results are depicted in FIGS. 12a and 12d.

[10] = test system: 22RV1 metastasis mouse models; assay type: in vivo; settings: 2 mg/kg every 2 days oral
Experimental: In order construct metastasis mouse models with the castration-resistant prostate cancer cell line 22RV1, the cells were subcutaneously injected into nude mice and the tumors was grown. Then, the tumors were harvested and injected into the left cardiac ventricle of nude mice to construct metastasis mouse models (see FIG. 13).
In the metastasis mouse models using the castration-resistant prostate cancer cell line 22RV1, bruceantin was analyzed for inhibitory effect on tumor metastasis and growth. In brief, the metastasis mice were monitored for inhibitory effects on tumor metastasis and growth and body weight while bruceantin was orally administered at a dose of 2 mg/kg/every 2 days thereto. The results are depicted in FIGS. 14a and 14b and Table 14.

Structure (SMILES): COC(=O)[C@@]12OC[C@]34[C@H]([C@@H](O)[C@@H]1O)[C@@]1(C)CC(=O)C(O)=C(C)[C@@H]1C[C@H]3OC(=O)[C@H](OC(=O)/C=C(\C)C(C)C)[C@@H]24 [Bruceantin, bruceantin]
- activity at 0.1 µM ([1]; Homo sapiens, 22RV1 cells, 0.1 uM, no DHT, control = 100): 13.4 ± 2.5%
- activity at 1 µM ([1]; Homo sapiens, 22RV1 cells, 1 uM, no DHT, control = 100): 15.2 ± 1.6%
- activity at 10 µM ([1]; Homo sapiens, 22RV1 cells, 10 uM, no DHT, control = 100): 16.4 ± 2.3%
- IC50 ([1]; Homo sapiens, 22RV1 cells, AR-V7 transcriptional activity): 3.14 nM
- potency as inhibitor of AR/AR-V7 transcriptional activity compared with ailanthone ([1]; in both CRPC 22RV1 cells and androgen-dependent LNCaP cells): more potent inhibitors against AR/AR-V7 transcriptional activity
- activity at 0.1 µM ([2]; 0.1 uM, with DHT, control = 100): 4 ± 0.5%
- activity at 1 µM ([2]; 1 uM, with DHT, control = 100): 4.4 ± 0.3%
- activity at 10 µM ([2]; 10 uM, with DHT, control = 100): 3.9 ± 0.4%
- IC50 ([2]; AR transcriptional activity): 2.08 nM
- IC50 [3]: 2.05 nM
- fold more potent inhibitory activity against CRPC cell growth than ailanthone (22RV1 cells; versus ailanthone): 16 fold
- IC50 (22RV1 cells; Homo sapiens, MTT, 72 hours, read-out: IC50 (22RV1 cell growth)): 2.07 nM
- specificity of cell growth inhibition [4]: inhibitory activity specifically against AR- and AR-V7-positive prostate cancer cells
- Tumor (ave) ([5]; Day 0): 57.5
- Tumor (ave) ([5]; Day 3): 81.7
- Tumor (ave) ([5]; Day 6): 161.6
- Tumor (ave) ([5]; Day 9): 250.2
- Tumor (ave) ([5]; Day 12): 428.0
- Tumor (ave) ([5]; Day 15): 676.3
- Tumor (ave) ([5]; Day 18): 895.7
- Tumor (ave) ([5]; Day 21): 938.5
- Tumor (ave) ([5]; Day 24): 1005.7
- inhibition of in vivo tumor growth of CRPC cells ([5]; nude mice, 22RV1 cells, dose of 1 mg/kg): effectively inhibit in vivo tumor growth
- effect on weights of the mice ([6]; 1 mg/kg): no effect on weights of the mice
- hepatotoxicity ([6]; 1 mg/kg): nor to cause hepatotoxicity
- AST/ALT (ave) ([6]; 0.5 mg/kg): 2.5
- AST/ALT (ave) ([6]; 1 mg/kg): 3.3
- inhibition of tumor growth [7]: effectively inhibit tumor growth
- Tumor (ave) ([7]; Day 0): 73.0453
- Tumor (ave) ([7]; Day 3): 89.5358
- Tumor (ave) ([7]; Day 5): 75.35
- Tumor (ave) ([7]; Day 7): 88.811
- Tumor (ave) ([7]; Day 9): 157.6571
- Tumor (ave) ([7]; Day 11): 189.9515
- Tumor (ave) ([7]; Day 13): 256.5573
- Tumor (ave) ([7]; Day 15): 348.6721
- Tumor (ave) ([7]; Day 17): 485.1394
- Tumor (ave) ([7]; Day 19): 567.0807
- Tumor (ave) ([7]; Day 21): 616.549
- toxicity on blood indices ([8]; compared to the control vehicle, both routes): no toxicity on blood indices
- ALT (ave) ([8]; ip, 1 mg/kg): 61.2
- AST (ave) ([8]; ip, 1 mg/kg): 351
- AST/ALT (ave) ([8]; ip, 1 mg/kg): 6.409
- CK (ave) ([8]; ip, 1 mg/kg): 180
- Cr (ave) ([8]; ip, 1 mg/kg): 0.156
- LDH (ave) ([8]; ip, 1 mg/kg): 1098.6
- ALT (ave) ([8]; po, 2 mg/kg): 72
- AST (ave) ([8]; po, 2 mg/kg): 263.4
- AST/ALT (ave) ([8]; po, 2 mg/kg): 3.658
- CK (ave) ([8]; po, 2 mg/kg): 247.5
- Cr (ave) ([8]; po, 2 mg/kg): 0.138
- LDH (ave) ([8]; po, 2 mg/kg): 1456.8
- morphological and histological changes in liver, kidney, spleen ([9]; po, 2 mg/kg): no morphological and histological changes (toxicity)
- morphological and histological changes in liver, kidney, spleen ([9]; sc, 1 mg/kg): no morphological and histological changes (toxicity)
- inhibitory effect on tumor metastasis and growth [10]: inhibit metastatic tumor growth and the number of metastases
